{
  "source": "paper PMC8329300",
  "about": "“X-ray crystallography reveals molecular recognition mechanism for sugar binding in a melibiose transporter MelB” (Communications Biology, 2021)",
  "key": {"MelBSt WT": {"target": "T1, MelBSt WT (Salmonella typhimurium, UniProt P30878)", "T1 construct": "Cys scanning mutagenesis for the full-length MelBSt; expressed in transfected cells; host or cells: E. coli DW2 (melA+, melB-, lacZ-Y-)", "assay": "[3H]Melibiose transport time course with DW2 intact cells expressing MelBSt WT", "assay_type": "cell-based", "conditions": "0.4 mM [3H]melibiose", "method": "(§1) Fig. 1 Functional characterizations. a [^3H] Melibiose transport time course with intact cells. E. coli DW2 strain (melB^−, lacZ^−Y^−) expressed with the WT, D59C, or D59A MelBSt mutants were subjected to [^3H]melibiose active transport assay at 0.4 mM and 10 mCi/mmol in the presence of 20 mM or 100 mM NaCl or LiCl by a fast filtration method. Inset, melibiose fermentation assay. Transformants with DW2 strain were plated on MacConkey agar plates containing 30 mM melibiose as the sole carbohydrate source and pH sensor neutral red, and incubated at 37 °C for 16–18 h before imaging. Number of tests = 3, from different batch of cells or duplicate measurements from same batch of sample. b Ligand binding by Trp→dansyl galactoside (D^2G) FRET assay. Purified proteins at 1 μM concentration in 20 mM Tris-HCl, pH 7.5, 100 mM CholCl, 10% glycerol, and 0.03% UDM were subjected to steady-state fluorescence measurements as described in Methods. On the time-trace, 1.8 μL of 1 mM D^2G at 10 μM was added into 180 μL of protein solutions at 1-min point, followed by supplying 10 μL of 5 mM DDMB or 5 mM α-NPG to displace the bound D^2G. For testing Na^+ or Li^+ binding, they are added into the solution before displacement with the second sugar. The structure of DDMB or α-NPG is shown in a chair form, and the carbon positions are labeled. Glycosidic bonds are indicated by arrows. Both are α-galactosides containing a substituent at the anomeric carbon-1. The data were from duplicate measurements.\nThe overexpression of MelBSt was carried out in the E. coli DW2 strain (melA^+, melB^−, and lacZ^−Y^−) from a constitutive expression plasmid pK95ΔAH/MelBSt/CHis10[9],[28],[33]. The D59C or D59A mutant with Cys or Ala at the position 59, respectively, was constructed previously[9] or in this study by QuikChange Site-Directed Mutagenesis kit and confirmed by DNA sequencing analysis. E. coli DW2 cells containing a given plasmid were grown in Luria-Bertani (LB) broth (5 g yeast extract and 10 g tryptone per liter with 171 mM NaCl) with 100 mg/L of ampicillin in a 37 °C shaker. The overnight cultures were diluted by 5% with LB broth supplemented with 0.5% glycerol and 100 mg/L of ampicillin, and constitutive overexpression was obtained by shaking at 30 °C for another 5 h.\nE. coli DW2 cells expressing MelBSt were washed with 100 mM KPi, pH 7.5, to remove Na^+ contamination as described previously. The cell pellets were resuspended with the assay buffer (100 mM KPi, pH 7.5, 10 mM MgSO4) and adjusted to A420 of 10 (∼0.7 mg protein/ml). Using a fast filtration, transport time course at 0.4 mM melibiose (at specific activity of 10 mCi/mmol) was carried out in the absence or presence of NaCl or LiCl at 20 mM or 100 mM, respectively, and intracellular melibiose was determined as described previously."}, "D59C MelBSt": {"target": "T2, D59C MelBSt (Salmonella typhimurium, UniProt P30878, D59C)", "T2 construct": "Cys scanning mutagenesis for the full-length MelBSt; His10 (C); made in house; host or cells: E. coli DW2", "T2 sequence (P30878 whole entry D59C)": "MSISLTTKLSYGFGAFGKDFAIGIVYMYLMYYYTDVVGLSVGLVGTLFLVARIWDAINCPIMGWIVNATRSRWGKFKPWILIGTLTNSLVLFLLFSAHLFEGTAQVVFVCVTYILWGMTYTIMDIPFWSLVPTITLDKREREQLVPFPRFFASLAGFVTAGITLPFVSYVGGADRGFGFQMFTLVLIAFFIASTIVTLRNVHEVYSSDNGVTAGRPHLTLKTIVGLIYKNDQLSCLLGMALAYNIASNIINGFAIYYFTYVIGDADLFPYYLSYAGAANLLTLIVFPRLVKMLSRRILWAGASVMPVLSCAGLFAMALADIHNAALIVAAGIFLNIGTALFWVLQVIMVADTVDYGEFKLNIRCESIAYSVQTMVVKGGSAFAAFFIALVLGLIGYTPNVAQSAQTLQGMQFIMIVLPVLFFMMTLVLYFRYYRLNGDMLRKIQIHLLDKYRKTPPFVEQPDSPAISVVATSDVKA", "assay": "Melibiose fermentation on MacConkey agar (DW2 transformants)", "assay_type": "cell-based", "conditions": "30 mM melibiose, 37 °C", "method": "as §1, with “Both are α-galactosides containing a substituent at the anomeric carbon-1. The data were from duplicate measurements.” left out"}},
  "data": [
    {"smiles": "OC[C@H]1O[C@H](OCC2O[C@@H](O)[C@H](O)[C@@H](O)[C@@H]2O)[C@H](O)[C@@H](O)[C@H]1O", "note": "(some centres unmarked) [Melibiose]", "values": [
      {"measurement": "Melibiose transport", "setting": "MelBSt WT; H+, Time 0.08333", "result": 4.65},
      {"measurement": "Melibiose transport", "setting": "MelBSt WT; H+, Time 0.16667", "result": 11.5871},
      {"measurement": "Melibiose transport", "setting": "MelBSt WT; H+, Time 0.5", "result": 17.8175},
      {"measurement": "Melibiose transport", "setting": "MelBSt WT; H+, Time 1", "result": 26.1053},
      {"measurement": "Melibiose transport", "setting": "MelBSt WT; H+, Time 2", "result": 32.522},
      {"measurement": "Melibiose transport", "setting": "MelBSt WT; H+, Time 5", "result": 41.2117},
      {"measurement": "Melibiose transport", "setting": "MelBSt WT; H+, Time 10", "result": 51.4376},
      {"measurement": "Melibiose transport", "setting": "MelBSt WT; H+, Time 30", "result": 52.9751},
      {"measurement": "Melibiose transport", "setting": "MelBSt WT; Li+, 20 mM, Time 0.08333", "result": 5.082},
      {"measurement": "Melibiose transport", "setting": "MelBSt WT; Li+, 20 mM, Time 0.16667", "result": 9.37},
      {"measurement": "Melibiose transport", "setting": "MelBSt WT; Li+, 20 mM, Time 0.5", "result": 20.2553},
      {"measurement": "Melibiose transport", "setting": "MelBSt WT; Li+, 20 mM, Time 1", "result": 29.5856},
      {"measurement": "Melibiose transport", "setting": "MelBSt WT; Li+, 20 mM, Time 2", "result": 49.8958},
      {"measurement": "Melibiose transport", "setting": "MelBSt WT; Li+, 20 mM, Time 5", "result": 106.047},
      {"measurement": "Melibiose transport", "setting": "MelBSt WT; Li+, 20 mM, Time 10", "result": 190.811},
      {"measurement": "Melibiose transport", "setting": "MelBSt WT; Li+, 20 mM, Time 30", "result": 313.001},
      {"measurement": "Melibiose transport", "setting": "MelBSt WT; Li+, 100 mM, Time 0.08333", "result": 13.3342},
      {"measurement": "Melibiose transport", "setting": "MelBSt WT; Li+, 100 mM, Time 0.16667", "result": 15.8108},
      {"measurement": "Melibiose transport", "setting": "MelBSt WT; Li+, 100 mM, Time 0.5", "result": 32.509},
      {"measurement": "Melibiose transport", "setting": "MelBSt WT; Li+, 100 mM, Time 1", "result": 62.5704},
      {"measurement": "Melibiose transport", "setting": "MelBSt WT; Li+, 100 mM, Time 2", "result": 85.8864},
      {"measurement": "Melibiose transport", "setting": "MelBSt WT; Li+, 100 mM, Time 5", "result": 142.587},
      {"measurement": "Melibiose transport", "setting": "MelBSt WT; Li+, 100 mM, Time 10", "result": 325.223},
      {"measurement": "Melibiose transport", "setting": "MelBSt WT; Li+, 100 mM, Time 30", "result": 437.5},
      {"measurement": "Melibiose transport", "setting": "MelBSt WT; Na+, 20 mM, Time 0.08333", "result": 6.156},
      {"measurement": "Melibiose transport", "setting": "MelBSt WT; Na+, 20 mM, Time 0.16667", "result": 13.1731},
      {"measurement": "Melibiose transport", "setting": "MelBSt WT; Na+, 20 mM, Time 0.5", "result": 23.5532},
      {"measurement": "Melibiose transport", "setting": "MelBSt WT; Na+, 20 mM, Time 1", "result": 28.6147},
      {"measurement": "Melibiose transport", "setting": "MelBSt WT; Na+, 20 mM, Time 2", "result": 46.7036},
      {"measurement": "Melibiose transport", "setting": "MelBSt WT; Na+, 20 mM, Time 5", "result": 103.453},
      {"measurement": "Melibiose transport", "setting": "MelBSt WT; Na+, 20 mM, Time 10", "result": 203.925},
      {"measurement": "Melibiose transport", "setting": "MelBSt WT; Na+, 20 mM, Time 30", "result": 320.843},
      {"measurement": "Melibiose transport", "setting": "MelBSt WT; Na+, 100 mM, Time 0.08333", "result": 7.0516},
      {"measurement": "Melibiose transport", "setting": "MelBSt WT; Na+, 100 mM, Time 0.16667", "result": 7.9788},
      {"measurement": "Melibiose transport", "setting": "MelBSt WT; Na+, 100 mM, Time 0.5", "result": 20.0324},
      {"measurement": "Melibiose transport", "setting": "MelBSt WT; Na+, 100 mM, Time 1", "result": 44.6398},
      {"measurement": "Melibiose transport", "setting": "MelBSt WT; Na+, 100 mM, Time 2", "result": 78.2935},
      {"measurement": "Melibiose transport", "setting": "MelBSt WT; Na+, 100 mM, Time 5", "result": 118.81},
      {"measurement": "Melibiose transport", "setting": "MelBSt WT; Na+, 100 mM, Time 10", "result": 202.959},
      {"measurement": "Melibiose transport", "setting": "MelBSt WT; Na+, 100 mM, Time 30", "result": 340.508},
      {"measurement": "melibiose fermentation (colony colour)", "setting": "D59C MelBSt", "result": "normal melibiose fermentation with red colonies"}
    ]}
  ]
}
